Test results from patent US20230295119A1, “SUBSTITUTED PYRIDINES FOR THE TREATMENT OF INFLAMMATORY DISEASES” (GOSSAMER BIO SERVICES, INC., priority 2020, published 2023).
pIC50: −log10 of the molar value. Read-outs that look alike come from different tables or passages of the source.

What was measured:
human JAK1 = human JAK1 (Homo sapiens (Human), UniProt P23458); assay: JAK1 TR-FRET kinase assay; type: biochemical
human JAK3 = human JAK3 (Homo sapiens (Human), UniProt P52333); assay: JAK3 TR-FRET kinase assay; type: biochemical; conditions: JAK3 0.0125 nM
TYK2 JH2 domain = TYK2 JH2 domain (Homo sapiens (Human), UniProt P29597); assay: TYK2 JH2 NanoBRET assay; type: binding; conditions: Table 20, read-out: TYK2 IC50
Outline: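 HEK293T cells transiently expressing NanoLuc-TYK2 JH2 fusion, incubated 2 h with compound and NanoBRET K10 tracer (0.5 µM final). Target engagement read as acceptor/donor BRET ratio after Nano-Glo substrate plus extracellular NanoLuc inhibitor.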

human JAK2 = human JAK2 (Homo sapiens (Human), UniProt O60674); assay: JAK2 TR-FRET kinase assay; type: biochemical; conditions: JAK2 0.025 nM
Chain of human JAK2 (O60674 whole entry): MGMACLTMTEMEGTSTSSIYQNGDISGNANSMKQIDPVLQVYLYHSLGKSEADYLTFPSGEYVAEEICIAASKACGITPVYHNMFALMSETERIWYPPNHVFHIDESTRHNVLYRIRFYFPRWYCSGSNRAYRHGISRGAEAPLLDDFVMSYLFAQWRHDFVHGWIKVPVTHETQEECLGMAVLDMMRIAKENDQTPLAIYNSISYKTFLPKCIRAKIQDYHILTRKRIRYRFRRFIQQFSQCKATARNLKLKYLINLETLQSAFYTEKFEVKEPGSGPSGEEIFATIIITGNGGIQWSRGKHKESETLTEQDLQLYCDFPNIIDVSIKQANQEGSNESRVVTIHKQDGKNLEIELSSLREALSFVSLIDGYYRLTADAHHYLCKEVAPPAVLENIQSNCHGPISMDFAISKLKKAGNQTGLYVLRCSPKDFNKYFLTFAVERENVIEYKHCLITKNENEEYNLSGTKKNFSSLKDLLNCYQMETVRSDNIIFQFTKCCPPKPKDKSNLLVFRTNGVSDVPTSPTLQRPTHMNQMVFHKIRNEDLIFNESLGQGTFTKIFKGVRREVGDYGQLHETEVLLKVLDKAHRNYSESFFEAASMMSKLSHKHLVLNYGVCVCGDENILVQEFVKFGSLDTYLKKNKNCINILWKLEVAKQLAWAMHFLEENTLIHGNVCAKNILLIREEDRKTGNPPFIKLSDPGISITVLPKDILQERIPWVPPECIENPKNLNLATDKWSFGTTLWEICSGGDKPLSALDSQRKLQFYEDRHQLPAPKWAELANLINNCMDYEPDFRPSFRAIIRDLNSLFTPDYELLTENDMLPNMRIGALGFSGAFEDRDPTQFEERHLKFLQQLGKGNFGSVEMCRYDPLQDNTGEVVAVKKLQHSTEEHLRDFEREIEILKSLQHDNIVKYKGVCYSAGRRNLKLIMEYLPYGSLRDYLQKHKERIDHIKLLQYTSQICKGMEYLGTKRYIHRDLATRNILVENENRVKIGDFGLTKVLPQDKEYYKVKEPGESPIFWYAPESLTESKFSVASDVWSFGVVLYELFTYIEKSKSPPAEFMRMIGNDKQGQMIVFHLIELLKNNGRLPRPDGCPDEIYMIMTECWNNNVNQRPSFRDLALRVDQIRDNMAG

Chain of TYK2 JH2 domain (P29597 589-875): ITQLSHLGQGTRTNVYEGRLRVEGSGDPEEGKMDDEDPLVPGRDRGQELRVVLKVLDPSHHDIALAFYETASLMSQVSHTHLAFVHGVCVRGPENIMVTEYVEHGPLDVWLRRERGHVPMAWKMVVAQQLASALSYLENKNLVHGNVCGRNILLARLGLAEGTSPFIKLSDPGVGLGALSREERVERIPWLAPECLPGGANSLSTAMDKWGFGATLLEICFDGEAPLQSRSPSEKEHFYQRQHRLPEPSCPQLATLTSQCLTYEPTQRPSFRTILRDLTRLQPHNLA
Chain of human JAK3 (P52333 whole entry, the tested form may be a part): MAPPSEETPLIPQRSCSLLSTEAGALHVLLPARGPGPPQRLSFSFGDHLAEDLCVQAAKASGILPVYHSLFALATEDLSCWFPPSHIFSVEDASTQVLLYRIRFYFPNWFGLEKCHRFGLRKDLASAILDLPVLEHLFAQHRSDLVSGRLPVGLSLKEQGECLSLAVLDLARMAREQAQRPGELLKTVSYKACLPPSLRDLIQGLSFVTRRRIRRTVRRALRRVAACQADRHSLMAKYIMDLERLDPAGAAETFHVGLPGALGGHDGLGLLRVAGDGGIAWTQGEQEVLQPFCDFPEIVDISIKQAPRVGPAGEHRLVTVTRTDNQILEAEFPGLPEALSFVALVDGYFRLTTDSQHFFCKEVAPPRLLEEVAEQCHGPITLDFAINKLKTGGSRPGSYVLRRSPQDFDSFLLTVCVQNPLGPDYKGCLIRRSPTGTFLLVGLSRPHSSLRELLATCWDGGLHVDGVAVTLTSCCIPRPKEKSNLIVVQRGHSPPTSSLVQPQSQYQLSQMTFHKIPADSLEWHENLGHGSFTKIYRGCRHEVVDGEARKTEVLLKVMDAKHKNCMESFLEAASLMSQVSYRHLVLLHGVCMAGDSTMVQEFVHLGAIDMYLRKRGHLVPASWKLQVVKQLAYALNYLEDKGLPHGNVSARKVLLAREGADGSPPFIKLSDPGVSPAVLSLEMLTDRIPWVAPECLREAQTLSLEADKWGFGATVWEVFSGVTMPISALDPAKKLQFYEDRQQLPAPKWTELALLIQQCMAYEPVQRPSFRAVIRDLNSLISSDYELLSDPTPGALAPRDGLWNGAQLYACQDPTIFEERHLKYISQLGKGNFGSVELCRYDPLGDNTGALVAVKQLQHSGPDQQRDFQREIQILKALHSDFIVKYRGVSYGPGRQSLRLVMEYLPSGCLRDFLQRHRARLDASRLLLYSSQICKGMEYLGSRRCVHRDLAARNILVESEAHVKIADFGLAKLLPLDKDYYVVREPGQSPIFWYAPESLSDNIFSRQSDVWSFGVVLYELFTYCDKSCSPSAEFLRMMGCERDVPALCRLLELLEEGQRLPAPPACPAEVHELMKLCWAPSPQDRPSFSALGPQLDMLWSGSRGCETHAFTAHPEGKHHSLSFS
Chain of human JAK1 (P23458 whole entry): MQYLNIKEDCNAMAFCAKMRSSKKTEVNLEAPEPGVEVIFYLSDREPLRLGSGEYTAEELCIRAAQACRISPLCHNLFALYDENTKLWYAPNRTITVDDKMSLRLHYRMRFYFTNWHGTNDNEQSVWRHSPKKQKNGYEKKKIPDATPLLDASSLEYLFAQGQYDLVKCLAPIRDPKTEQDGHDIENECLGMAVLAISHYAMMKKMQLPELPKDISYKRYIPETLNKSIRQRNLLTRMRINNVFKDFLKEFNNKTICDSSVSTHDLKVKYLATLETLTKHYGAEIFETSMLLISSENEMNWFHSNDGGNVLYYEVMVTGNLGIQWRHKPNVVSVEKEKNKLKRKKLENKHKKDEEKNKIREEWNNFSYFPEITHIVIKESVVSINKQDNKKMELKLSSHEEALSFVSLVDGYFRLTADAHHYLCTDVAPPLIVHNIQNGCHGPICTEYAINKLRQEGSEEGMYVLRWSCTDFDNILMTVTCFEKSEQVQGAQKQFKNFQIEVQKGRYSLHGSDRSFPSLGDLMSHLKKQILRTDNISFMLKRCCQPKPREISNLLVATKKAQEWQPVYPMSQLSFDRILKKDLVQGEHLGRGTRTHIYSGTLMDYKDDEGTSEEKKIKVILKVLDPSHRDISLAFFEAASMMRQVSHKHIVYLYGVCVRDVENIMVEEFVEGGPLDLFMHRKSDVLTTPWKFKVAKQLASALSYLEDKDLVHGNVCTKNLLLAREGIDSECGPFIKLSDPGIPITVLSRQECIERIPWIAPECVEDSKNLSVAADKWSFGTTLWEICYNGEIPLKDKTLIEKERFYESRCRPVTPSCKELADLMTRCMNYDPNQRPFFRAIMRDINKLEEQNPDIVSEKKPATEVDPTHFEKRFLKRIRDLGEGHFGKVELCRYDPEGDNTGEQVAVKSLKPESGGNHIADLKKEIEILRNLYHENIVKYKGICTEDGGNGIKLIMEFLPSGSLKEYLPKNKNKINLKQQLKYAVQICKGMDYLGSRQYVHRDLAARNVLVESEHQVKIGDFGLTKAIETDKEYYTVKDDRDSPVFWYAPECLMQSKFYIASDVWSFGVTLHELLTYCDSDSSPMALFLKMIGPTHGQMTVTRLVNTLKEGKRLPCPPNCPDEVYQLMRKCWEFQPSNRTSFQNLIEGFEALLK

SMILES	pIC50 (human JAK1; TR-FRET, JAK1 2.5 nM)	pIC50 (human JAK3)	pIC50 (TYK2 JH2 domain)	pIC50 (human JAK2)	pIC50 (human JAK1)
CCC(=O)c1cnc(Nc2ccn(CC3CCCO3)n2)cc1Nc1cccc(-c2ncn(C)n2)c1OC (stereo not drawn) [Compound 21S]	≤ 6.30	≤ 6.30	7.30 to 8.30	≤ 6.30	–
CCC(=O)c1cnc(Nc2ccn(CC3CCOC3)n2)cc1Nc1cccc(-c2ncn(C)n2)c1OC (stereo not drawn) [Compound 21T]	≤ 6.30	≤ 6.30	7.30 to 8.30	≤ 6.30	–
CCC(=O)c1cnc(Nc2ccn(CC3(CO)COC3)n2)cc1Nc1cccc(-c2ncn(C)n2)c1OC [Compound 21U]	≤ 6.30	6.30 to 7.30	6.30 to 7.30	6.30 to 7.30	–
CCC(=O)c1cnc(Nc2ccn(CC3CCO3)n2)cc1Nc1cccc(-c2ncn(C)n2)c1OC (stereo not drawn) [Compound 21V]	≤ 6.30	≤ 6.30	6.30 to 7.30	≤ 6.30	–
CCC(=O)c1cnc(Nc2ccn(C[C@H]3C[C@@H](O)C3)n2)cc1Nc1cccc(-c2ncn(C)n2)c1OC [Compound 21W]	≤ 6.30	≤ 6.30	7.30 to 8.30	≤ 6.30	–
CCC(=O)c1cnc(Nc2ccn(CC3CN(C)C3)n2)cc1Nc1cccc(-c2ncn(C)n2)c1OC [Compound 21X]	≤ 6.30	≤ 6.30	6.30 to 7.30	≤ 6.30	–
CCC(=O)c1cnc(Nc2cc(OC)n(CCOC)n2)cc1Nc1cccc(-c2ncn(C)n2)c1OC [Compound 21Y]	≤ 6.30	6.30 to 7.30	7.30 to 8.30	6.30 to 7.30	–
CCC(=O)c1cnc(Nc2cc(C)n(CCOC)n2)cc1Nc1cccc(-c2ncn(C)n2)c1OC [Compound 21Z]	≤ 6.30	6.30 to 7.30	7.30 to 8.30	≤ 6.30	–
CCC(=O)c1cnc(NC(=O)C2CC2c2cnn(C)c2)cc1Nc1cccc(-c2ncn(C)n2)c1OC (stereo not drawn) [Compound 22A, N-(4-((2-methoxy-3-(1-methyl-1H-1,2,4-tliazol-3-yl)phenyl)amino)-5-propionylpyridin-2-yl)-2-(1-methyl-1H-pyrazol-4-yl)cyclopropane-1-carboxamide]	≤ 6.30	≤ 6.30	7.30 to 8.30	≤ 6.30	–
CCC(=O)c1cnc(NC(=O)C2CC2c2ccccn2)cc1Nc1cccc(-c2ncn(C)n2)c1OC (stereo not drawn) [Compound 22B]	≤ 6.30	≤ 6.30	6.30 to 7.30	≤ 6.30	–
CCC(=O)c1cnc(NC(=O)[C@@H]2C[C@H]2C(=O)O)cc1Nc1cccc(-c2ncn(C)n2)c1OC [Compound 22C]	≤ 6.30	≤ 6.30	≤ 6.30	≤ 6.30	–
CCC(=O)c1cnc(NC(=O)[C@@H]2C[C@H]2CN(C)C)cc1Nc1cccc(-c2ncn(C)n2)c1OC [Compound 22D]	≤ 6.30	≤ 6.30	7.30 to 8.30	≤ 6.30	–
CCC(=O)c1cnc(NC(=O)[C@@H]2C[C@H]2C(N)=O)cc1Nc1cccc(-c2ncn(C)n2)c1OC [Compound 22E]	≤ 6.30	≤ 6.30	≤ 6.30	≤ 6.30	–
CCC(=O)c1cnc(NC(=O)[C@@H]2C[C@@H]2C(N)=O)cc1Nc1cccc(-c2ncn(C)n2)c1OC [Compound 22G]	≤ 6.30	≤ 6.30	≤ 6.30	≤ 6.30	–
CCC(=O)c1cnc(NC(=O)[C@@H]2C[C@H]2NC(=O)OC(C)(C)C)cc1Nc1cccc(-c2ncn(C)n2)c1OC [Compound 22H]	≤ 6.30	≤ 6.30	≤ 6.30	≤ 6.30	–
CCC(=O)c1cnc(NC(=O)[C@@H]2C[C@H]2NC(C)=O)cc1Nc1cccc(-c2ncn(C)n2)c1OC [Compound 22I]	≤ 6.30	≤ 6.30	≤ 6.30	≤ 6.30	–
CCC(=O)c1cnc(NC(=O)[C@@H]2C[C@@H]2NC(=O)OC(C)(C)C)cc1Nc1cccc(-c2ncn(C)n2)c1OC [Compound 22J]	≤ 6.30	≤ 6.30	≤ 6.30	≤ 6.30	–

SMILES	pIC50 (human JAK1; TR-FRET, JAK1 2.5 nM)	pIC50 (human JAK3)	pIC50 (TYK2 JH2 domain)	pIC50 (human JAK2)	pIC50 (human JAK1)
CCC(=O)c1cnc(NC(=O)[C@@H]2C[C@@H]2NC(C)=O)cc1Nc1cccc(-c2ncn(C)n2)c1OC [Compound 22K]	≤ 6.30	≤ 6.30	≤ 6.30	≤ 6.30	–
CCC(=O)c1cnc(NC(=O)[C@@H]2C[C@H]2CC#N)cc1Nc1cccc(-c2ncn(C)n2)c1OC [Compound 22L]	≤ 6.30	≤ 6.30	≤ 6.30	≤ 6.30	–
CCC(=O)c1cnc(NC(=O)C2CC2c2ccn(C)n2)cc1Nc1cccc(-c2ncn(C)n2)c1OC (stereo not drawn) [Compound 22M]	≤ 6.30	≤ 6.30	6.30 to 7.30	≤ 6.30	–
CCC(=O)c1cnc(NC(=O)[C@@H]2C[C@H]2CS(C)(=O)=O)cc1Nc1cccc(-c2ncn(C)n2)c1OC [Compound 22N]	≤ 6.30	≤ 6.30	6.30 to 7.30	≤ 6.30	–
CCC(=O)c1cnc(NC(=O)CC2CCN(C)CC2)cc1Nc1cccc(-c2ncn(C)n2)c1OC [Compound 23A, N-(4-((2-methoxy-3-(1-methyl-1H-1,2,4-triazol-3-yl)phenyl)amino)-5-propionylpyridin-2-yl)-2-(1-methylpiperidin-4-yl)acetamide]	≤ 6.30	≤ 6.30	7.30 to 8.30	≤ 6.30	–
CCC(=O)c1cnc(NC(=O)CC2CC2)cc1Nc1cccc(-c2ncn(C)n2)c1OC [Compound 23B]	≤ 6.30	≤ 6.30	7.30 to 8.30	≤ 6.30	–
CCC(=O)c1cnc(NC(=O)CC2(O)CC2)cc1Nc1cccc(-c2ncn(C)n2)c1OC [Compound 23C]	≤ 6.30	≤ 6.30	6.30 to 7.30	≤ 6.30	–
CCC(=O)c1cnc(NC(=O)CCN2CCCC2)cc1Nc1cccc(-c2ncn(C)n2)c1OC [Compound 23D]	≤ 6.30	≤ 6.30	6.30 to 7.30	≤ 6.30	–
CCC(=O)c1cnc(NC(=O)CCCN2CCCC2)cc1Nc1cccc(-c2ncn(C)n2)c1OC [Compound 23E]	≤ 6.30	≤ 6.30	6.30 to 7.30	≤ 6.30	–
CCC(=O)c1cnc(NC(=O)CCc2cnn(C)c2)cc1Nc1cccc(-c2ncn(C)n2)c1OC [Compound 23F]	≤ 6.30	≤ 6.30	6.30 to 7.30	≤ 6.30	–
CCC(=O)c1cnc(NC(=O)CC2CN(C)C2)cc1Nc1cccc(-c2ncn(C)n2)c1OC [Compound 23G]	≤ 6.30	≤ 6.30	≤ 6.30	≤ 6.30	–
CCC(=O)c1cnc(NC(=O)CCNC)cc1Nc1cccc(-c2ncn(C)n2)c1OC [Compound 23H]	≤ 6.30	≤ 6.30	6.30 to 7.30	≤ 6.30	–
CCC(=O)c1cnc(Nc2cc(OCCOC)n(C)n2)cc1Nc1cccc(-c2ncn(C)n2)c1OC [Compound 24A, 1-(4-((2-methoxy-3-(1-methyl-1H-1,2,4-triazol-3-yl)phenyl)amino)-6-((5-(2-methoxyethoxy)-1-methyl-1H-pyrazol-3-yl)amino)pyridin-3-yl)propan-1-one]	–	6.30 to 7.30	> 8.30	6.30 to 7.30	< 6.30
CCC(=O)c1cnc(NC(=O)C2CC2)cc1Nc1cc(F)cc(-c2ncn(C)n2)c1OC [Compound 25A, N-(4-((5-fluoro-2-methoxy-3-(1-methyl-1H-1,2,4-triazol-3-yl)phenyl)amino)-5-propionylpyridin-2-yl)cyclopropanecarboxamide]	≤ 6.30	≤ 6.30	7.30 to 8.30	≤ 6.30	–
CCC(=O)c1cnc(NC(=O)C2CC2)cc1Nc1cc(C#N)cc(-c2ncn(C)n2)c1OC [Compound 25B]	≤ 6.30	≤ 6.30	≤ 6.30	≤ 6.30	–
CCC(=O)c1cnc(NC(=O)C2CC2)cc1Nc1cc(CN(C)C)cc(-c2ncn(C)n2)c1OC [Compound 25C]	≤ 6.30	≤ 6.30	≤ 6.30	≤ 6.30	–
